Laboratory results reported in ChEMBL document CHEMBL4420062, “Tfpi inhibitors and methods of use” (2013).
The source made the active and inactive calls. No cut-off for these calls is given here.

What was measured:
Plasma [1] = assay: (§1) Effect on blood coagulation parameters in plasma isolated from hemophilia A patient assessed as clotting time at […] by rotation thromboelastography (reference value: 2907 secs); format: functional, Homo sapiens
Plasma [2] = assay: as §1; format: functional, Homo sapiens; remark: listed apart in the source
Plasma [3] = assay: Effect on blood coagulation parameters in plasma isolated from hemophilia A patient assessed as clotting time at 40 nM by rotation thromboelastography (reference value: 2907 secs); format: functional, Homo sapiens
Plasma [4] = assay: Effect on blood coagulation parameters in plasma isolated from hemophilia A patient assessed as clotting time at 120 nM by rotation thromboelastography (reference value: 2907 secs); format: functional, Homo sapiens
Plasma [5] = assay: (§2) Effect on blood coagulation parameters in plasma isolated from hemophilia A patient assessed as clot formation time at […] by rotation thromboelastography (reference value: 1540 secs); format: functional, Homo sapiens
Plasma [6] = assay: as §2; format: functional, Homo sapiens; remark: listed apart in the source
Plasma [7] = assay: Effect on blood coagulation parameters in plasma isolated from hemophilia A patient assessed as clot formation time at 40 nM by rotation thromboelastography (reference value: 1540 secs); format: functional, Homo sapiens
Plasma [8] = assay: Effect on blood coagulation parameters in plasma isolated from hemophilia A patient assessed as clot formation time at 120 nM by rotation thromboelastography (reference value: 1540 secs); format: functional, Homo sapiens
Plasma [9] = assay: Effect on blood coagulation parameters in plasma isolated from hemophilia A patient assessed as maximum clot firmness at 40 nM by rotation thromboelastography; format: functional, Homo sapiens
Plasma [10] = assay: Effect on blood coagulation parameters in plasma isolated from hemophilia A patient assessed as maximum clot firmness at 120 nM by rotation thromboelastography; format: functional, Homo sapiens
Plasma [11] = assay: (§3) Effect on blood coagulation parameters in plasma isolated from hemophilia A patient at […] by rotation thromboelastography (reference value: 0%); format: functional, Homo sapiens
Plasma [12] = assay: as §3; format: functional, Homo sapiens; remark: listed apart in the source
Plasma [13] = assay: Effect on blood coagulation parameters in plasma isolated from hemophilia A patient at 40 nM by rotation thromboelastography (reference value: 0%); format: functional, Homo sapiens
Plasma [14] = assay: Effect on blood coagulation parameters in plasma isolated from hemophilia A patient at 120 nM by rotation thromboelastography (reference value: 0%); format: functional, Homo sapiens
[15] = Stability in human plasma assessed as parent compound remaining after 24 hrs; format: ADME, cell-free; settings: read-out: Stability
[16] = Stability in mouse plasma assessed as parent compound remaining after 24 hrs; format: ADME, cell-free; settings: read-out: Stability
Callithrix = settings: Plasma, 10 uM
[17] = biological target: T1, Tissue factor pathway inhibitor (Homo sapiens, UniProt P10646); assay: Inhibition of TFPI in human plasma with induced factor-8 deficiency assessed as increase in thrombin generation by measuring FEIBA at 10 uM using thrombin-specific fluorogenic substrate Z-Gly-Gly-Arg-AMC by calibrated automated thrombography; format: cell-free
T1 sequence (P10646 whole entry): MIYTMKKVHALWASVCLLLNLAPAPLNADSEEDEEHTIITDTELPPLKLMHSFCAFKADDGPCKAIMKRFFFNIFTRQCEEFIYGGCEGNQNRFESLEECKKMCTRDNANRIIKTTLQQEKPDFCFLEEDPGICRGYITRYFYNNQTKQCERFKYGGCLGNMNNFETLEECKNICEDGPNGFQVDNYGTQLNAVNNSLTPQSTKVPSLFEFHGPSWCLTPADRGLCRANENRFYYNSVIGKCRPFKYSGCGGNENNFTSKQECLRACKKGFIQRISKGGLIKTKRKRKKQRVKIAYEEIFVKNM

[18] = biological target: Tissue factor pathway inhibitor (Homo sapiens) (UniProt P10646); assay: Inhibition of TFPI in human plasma with induced factor-8 deficiency assessed as increase in thrombin generation by measuring FEIBA at 10 uM using thrombin-specific fluorogenic substrate Z-Gly-Gly-Arg-AMC by calibrated automated thrombography relative to inhibitory polyclonal anti-TFPI antibody; format: cell-free

`CCN1C(=O)CC(SC[C@H](NC(=O)[C@H](CC(C)C)NC(=O)[C@H](CCCCN)NC(=O)[C@H](C)NC(=O)C(C)(C)NC(=O)[C@H](CC(C)C)NC(=O)[C@H](CCCNC(=N)N)NC(=O)[C@H](CCC(=O)O)NC(=O)[C@H](Cc2ccccc2)NC(=O)[C@H](Cc2ccc(O)cc2)NC(=O)CNC(=O)[C@H](CC(=O)O)NC(=O)[C@@H](NC(=O)[C@H](Cc2cnc[nH]2)NC(=O)[C@@H](NC(=O)[C@H](CC(N)=O)NC(=O)[C@H]2CCCN2C(=O)[C@H](CCCCN)NC(=O)[C@H](CO)NC(=O)[C@H](CCC(N)=O)NC(=O)[C@H](Cc2ccccc2)NC(C)=O)C(C)C)C(C)C)C(N)=O)C1=O` (some centres undefined) gave a Time (Plasma [1]) of 2901 s, a Time (Plasma [2]) of 2249 s and a Time (Plasma [3]) of 1143 s. For the same molecule, the Time (Plasma [4]) was 853 s, the Time (Plasma [5]) was 2488 s and the Time (Plasma [6]) was 1480 s. For the same molecule, the Time (Plasma [7]) was 457 s, the Time (Plasma [8]) was 219 s and the Activity (Plasma [9]) was 64 mm. The Activity (Plasma [10]) was 64 mm, the Activity (Plasma [11]) was 0% and the Activity (Plasma [12]) was 44%. For the same molecule, the Activity (Plasma [13]) was 119%, the Activity (Plasma [14]) was 139% and the remaining at 24 h [15] was 10 to 23.8%. It also gave a remaining at 24 h [16] of 10 to 15.9%.

For `CSCC[C@@H]1NC(=O)[C@H](C)NC(=O)[C@@H](NC(=O)[C@H](Cc2cnc[nH]2)NC(=O)[C@H](Cc2c[nH]c3ccccc23)NC(=O)[C@H](CCCCN)NC(=O)[C@H](Cc2ccc(O)cc2)NC(=O)[C@H](Cc2ccc(O)cc2)NC(=O)[C@H](CO)NC(C)=O)CSSC[C@@H](C(=O)N[C@H](C(=O)N[C@@H](Cc2c[nH]c3ccccc23)C(=O)N[C@H](C(=O)N[C@@H](CCCCN)C(=O)N[C@@H](Cc2ccccc2)C(N)=O)C(C)C)C(C)C)NC(=O)[C@H]([C@@H](C)O)NC(=O)[C@H](CCSC)NC(=O)[C@H]([C@@H](C)O)NC(=O)CNC(=O)[C@@H](CCCCN)NC(=O)[C@H](CCSC)NC(=O)[C@H](CC(=O)O)NC(=O)[C@H](CCCNC(=N)N)NC1=O`, the inhibition (Callithrix) was “inactive”.

With `CSCC[C@@H]1NC(=O)[C@H](C)NC(=O)[C@H](NC(=O)[C@H](Cc2cnc[nH]2)NC(=O)[C@H](Cc2c[nH]c3ccccc23)NC(=O)[C@H](CCCCN)NC(=O)[C@H](Cc2ccc(O)cc2)NC(=O)[C@H](Cc2cnc[nH]2)NC(=O)[C@H](CO)NC(C)=O)CSSC[C@@H](C(=O)N[C@H](C(=O)N[C@@H](Cc2c[nH]c3ccccc23)C(=O)N[C@H](C(=O)N[C@@H](CCCCN)C(=O)N[C@@H](Cc2ccccc2)C(N)=O)C(C)C)C(C)C)NC(=O)[C@H](CO)NC(=O)[C@H](CCSC)NC(=O)[C@H]([C@@H](C)O)NC(=O)CNC(=O)[C@H]([C@@H](C)O)NC(=O)[C@H](CCSC)NC(=O)[C@H](CC(=O)O)NC(=O)[C@H](CCCNC(=N)N)NC1=O` the EC50 [17] was 4.8 nM and the inhibition [18] was 55.9%.

`CC(=O)N[C@@H](Cc1ccccc1)C(=O)N[C@@H](CCC(N)=O)C(=O)N[C@@H](CO)C(=O)N[C@@H](CCCCN)C(=O)N1CCC[C@@H]1C(=O)N[C@@H](CC(N)=O)C(=O)N[C@H](C(=O)N[C@@H](Cc1cnc[nH]1)C(=O)N[C@H](C(=O)N[C@@H](CC(=O)O)C(=O)N[C@H](C)C(=O)N[C@@H](Cc1ccc(O)cc1)C(=O)N[C@@H](Cc1ccccc1)C(=O)N[C@@H](CCC(=O)O)C(=O)N[C@@H](CCCNC(=N)N)C(=O)N[C@@H](CC(C)C)C(=O)NC1(C(=O)N[C@@H](C)C(=O)N[C@@H](CCCCN)C(=O)N[C@@H](CC(C)C)C(N)=O)Cc2ccccc2C1)C(C)(C)C)C(C)C` gave a remaining at 24 h [15] of 104% and a remaining at 24 h [16] of 53%.

`CC(C)C[C@@H]1NC(=O)[C@H](CCCCN)NC(=O)[C@H](C)NC(=O)C(C)(C)NC(=O)[C@H](CC(C)C)NC(=O)[C@H](CCCNC(=N)N)NC(=O)[C@H](CCC(=O)O)NC(=O)[C@H](Cc2ccccc2)NC(=O)[C@H](Cc2ccc(O)cc2)NC(=O)CNC(=O)[C@H](CC(=O)O)NC(=O)[C@H](C(C)C)NC(=O)[C@H](Cc2cnc[nH]2)NC(=O)[C@H](C(C)C)NC(=O)[C@H](CC(N)=O)NC(=O)[C@H]2CCCN2C(=O)[C@H](CCCCN)NC(=O)[C@H](CO)NC(=O)[C@H](CCC(N)=O)NC(=O)[C@H](Cc2ccccc2)NC(=O)CCOCCOCCOCCNC1=O` showed a remaining at 24 h [15] of 62.8% and a remaining at 24 h [16] of 38.1%.

For `CCCCCCCCCCCCCC(=O)NCCCOCCOCCOCCCNC(=O)CCNCCCC[C@H](NC(=O)[C@H](CC(C)C)NC(=O)[C@H](CCCCN)NC(=O)[C@H](C)NC(=O)C(C)(C)NC(=O)[C@H](CC(C)C)NC(=O)[C@H](CCCNC(=N)N)NC(=O)[C@H](CCC(=O)O)NC(=O)[C@H](Cc1ccccc1)NC(=O)[C@H](Cc1ccc(O)cc1)NC(=O)[C@@H](C)NC(=O)[C@H](CC(=O)O)NC(=O)[C@@H](NC(=O)[C@H](Cc1cnc[nH]1)NC(=O)[C@@H](NC(=O)[C@H](CSCNC(C)=O)NC(=O)[C@H]1CCCN1C(=O)[C@H](CCCCN)NC(=O)[C@H](CO)NC(=O)[C@H](CCC(N)=O)NC(=O)[C@H](Cc1ccccc1)NC(=O)CCCCC)C(C)C)C(C)(C)C)C(N)=O`, the remaining at 24 h [15] was 96.5% and the remaining at 24 h [16] was 67.5%.

In the case of `CC(=O)N[C@@H](Cc1ccccc1)C(=O)N[C@@H](CCC(N)=O)C(=O)N[C@@H](CO)C(=O)N[C@@H](CCCCN)C(=O)N1CCC[C@@H]1C(=O)N[C@@H](CC(N)=O)C(=O)N[C@H](C(=O)N[C@@H](Cc1ccc2ccccc2c1)C(=O)N[C@H](C(=O)N[C@@H](CC(=O)O)C(=O)N[C@H](C)C(=O)N[C@@H](Cc1ccc(O)cc1)C(=O)N[C@@H](Cc1ccccc1)C(=O)N[C@@H](CCC(=O)O)C(=O)N[C@@H](CCCNC(=N)N)C(=O)N[C@@H](CC(C)C)C(=O)NC(C)(C)C(=O)N[C@@H](C)C(=O)N[C@@H](CCCCN)C(=O)N[C@@H](CC(C)C)C(N)=O)C(C)(C)C)C(C)C`, the remaining at 24 h [15] is reported as 88.8% and the remaining at 24 h [16] is reported as 51.1%.

In the case of `CC(=O)N[C@@H](Cc1cccs1)C(=O)N[C@@H](CCC(N)=O)C(=O)N[C@@H](CO)C(=O)N[C@@H](CCCCN)C(=O)N1CCC[C@@H]1C(=O)N[C@@H](CC(N)=O)C(=O)N[C@H](C(=O)N[C@@H](Cc1cnc[nH]1)C(=O)N[C@H](C(=O)N[C@@H](CC(=O)O)C(=O)NCC(=O)N[C@@H](Cc1ccc(O)cc1)C(=O)N[C@@H](Cc1ccccc1)C(=O)N[C@@H](CCC(=O)O)C(=O)N[C@@H](CCCNC(=N)N)C(=O)N[C@@H](CC(C)C)C(=O)NC(C)(C)C(=O)N[C@@H](C)C(=O)N[C@@H](CCCCN)C(=O)N[C@@H](CC(C)C)C(N)=O)C(C)C)C(C)C`, the remaining at 24 h [15] is reported as 19.8% and the remaining at 24 h [16] is reported as 1.2%.
